Data reported in patent US11773096B2, “Small-molecule PI5P4K alpha/beta inhibitors and methods of treatment using same” (YALE UNIVERSITY, priority 2018, dated 2023).
pKi: −log10 of the molar value.

How the values were obtained:
[1] = target: PI3Kγ (Homo sapiens, UniProt P48736); experiment: Lipid kinase panel (ADP-Glo)
Procedure: (§2) In both titrations, the ATP concentration was fixed at 50 μM.

[2] = target: RSK2 (Homo sapiens, UniProt P51812); experiment: HotSpot protein kinase panel; conditions: read-out: RSK2 activity remaining
Procedure: (§3) In both titrations, the ATP concentration was fixed at 50 μM. The assay kits for Plk1 and RSK2 were obtained from Promega (Madison, Wis.), which use ADP-Glo™ for activity detection.

[3] = target: TNIK (Homo sapiens, UniProt Q9UKE5); experiment: HotSpot protein kinase panel; conditions: read-out: TNIK activity remaining
Procedure: as §3

[4] = tested on: panel of 14 lipid kinases; experiment: Lipid kinase panel (ADP-Glo), panel as a whole; conditions: compound 0.5 μM, ATP 10 μM
Procedure: as §2

[5] = tested on: C2Cl2 myotubes; experiment: Adenine nucleotides measurement in myotubes (luminescent ATP kit, HPLC, LC-MS/MS); assay type: cell-based, mouse
Procedure: C2Cl2 cells were plated and differentiated on the same type of plates. After treatment with compound overnight, total cellular ATP levels were measured by a luminescent ATP detection assay kit (Abcam) following manufacturer's protocol and normalized against the total protein concentration.
To measure nucleotide concentration using HPLC or LC-MS/MS, cells were rinsed three times with DPBS buffer at room temperature and lysed in ice-cold 0.4M perchloric acid (500 μl acid per 10^6 cells). The culture dishes were sealed and transferred to a −80° C. freezer. Cell lysates were then thawed on ice, scraped off, and centrifuged at 14,000 rpm at 4° C. for 10 min. The pellet was solubilized in 0.2M NaOH and set aside for measurement of protein concentration. The supernatant was transferred to clean tubes and neutralized with 3M KHCO3. The neutralized sample was kept on ice for 10 min and then transferred to a −80° C. freezer. After 2 hrs, thawed sample was centrifuged again to remove the precipitated perchlorate, filtered, adjusted according to protein concentration, aliquoted and stored at −80° C. The sample was thawed on ice just before the HPLC or LC-MS/MS experiment. […] The nucleotides were separated using 20 mM ammonium acetate in water (solvent A) and 5% acetonitrile in water buffered with 20 mM ammonium acetate (solvent B), which were both adjusted with ammonium hydroxide to pH 9.0. The flow rate was 0.7 mL/min, and the column temperature was maintained at 35° C. The gradient elution program was: 0-2 min, 0-5% B; 2-12 min, 5-10% B; 12-22 min, 10-20% B; 22-25 min, 20-100% B; 25-30 min, 100% B, and then back to 100% A for 1 min, which was maintained for another 9 min to recondition the column. Mass spectrometric ESI ionization was performed in the negative ion mode and the source parameters were set as follows: gas temperature, 200° C.; gas flow, 12 L/min; nebulizer pressure, 35 psi; sheath gas temperature, 200° C.; sheath gas flow, 12 L/min; capillary voltage, −4,000V; fragmentor voltage, 380V.

[6] = tested on: BT-474 cells; experiment: Intracellular ROS (DCFDA); assay type: cell-based; conditions: 20 μM
Procedure: 2′,7′-dichlorofluorescin diacetate (DCFDA) was used to assess intracellular ROS levels. DCFDA is deacetylated in the cell and oxidized by ROS to a fluorescent product 2′,7′-dichlorofluorescein (DCF). BT-474 cells were plated on a black clear-bottom 96-well plate (Corning 3603; 2×10^4 cells per well). ROS was measured by a DCFDA cellular ROS detection assay kit (Abcam) following the manufacturer's protocol. The cells were treated with compound for 6 hrs before fluorescence was measured using a SpectraMax M5 plate reader (excitation 485 nm, emission 535 nm).

[7] = tested on: MCF10A p53(−/−) cells; experiment: Growth of isogenic MCF10A cells, p53(−/−); assay type: cell-based
[8] = tested on: AMPK; experiment: Western blot of ACC phosphorylation by AMPK in myotubes (FIG. 3F); assay type: cell-based
Procedure: (§1) After wash with cold DPBS buffer, cells were lysed in RIPA buffer that contained 50 mM Tris-HCl pH 8.0, 150 mM NaCl, 1 mM EDTA, 1 mM EGTA, 1% NP-40, 0.5% sodium deoxycholate, 0.1% SDS, and protease and phosphatase inhibitor cocktails (Roche). Total protein concentrations were measured using a BCA assay (Thermo scientific). Cell lysate (about 80 μg protein) was resolved by SDS-PAGE and blotted onto PVDF membranes. The membranes were probed overnight at 4° C. with appropriate primary antibodies (Cell Signaling Technology) and incubated with secondary fluorescent antibodies (LI-COR Biosciences) for 1 hr at room temperature before imaging by an Odyssey CLx system.

[9] = target: Plk1 (Homo sapiens, UniProt P53350); experiment: Plk1 kinase assay kit (Promega, ADP-Glo); conditions: ATP 50 μM
Procedure: as §3

[10] = target: PLK2 (Homo sapiens, UniProt Q9NYY3); experiment: HotSpot protein kinase panel; conditions: read-out: PLK2 activity remaining
Procedure: as §3

[11] = target: NEK11 (Homo sapiens, UniProt Q8NG66); experiment: HotSpot protein kinase panel; conditions: read-out: NEK11 activity remaining
[12] = tested on: myotubes; experiment: Glucose consumption and lactate production in myotube culture media; assay type: cell-based
Procedure: To measure glucose consumption and lactate production, a total of 1×10^5 cells were seeded into each well of a 12-well plate and cultured in the presence of compound for 48 hrs. The culture media were collected and deproteinized by centrifugation using an Amicon Ultra centrifugal filter (3 kDa cut-off), while cells were lysed and used for protein concentration determination by BCA assay. The media were assayed immediately for glucose and lactate levels using colorimetric assay kits from BioVision following the manufacturer's protocols. The values were normalized against protein concentration. All measurements were made in triplicate.

[13] = target: Vps34 (Homo sapiens, UniProt Q8NEB9); experiment: In vitro lipid kinase profiling
[14] = tested on: MCF10A p53(−/−) cells; experiment: Cell death upon serum withdrawal, trypan blue staining; assay type: cell-based
Procedure: However, the difference is lost when EGF is added to the culture media. […] FIG. 17C: Cell death upon serum withdrawal is measured by trypan blue staining. p53(−/−) Cells are more susceptible to metabolic perturbations caused by glucose starvation.

[15] = tested on: C2Cl2 myotubes; experiment: Immunoblot analysis of signaling in C2Cl2 myotubes; assay type: cell-based, mouse
Procedure: BT-474 and MCF7 breast cancer cells, C2Cl2 mouse myoblast cells, and HEK 293T cells were maintained in high-glucose DMEM medium containing 10% FBS. L6 rat myoblast cells were maintained in α-MEM medium containing 10% FBS. For differentiation into myotubes, C2Cl2 cells were kept in DMEM medium containing 2% horse serum for 5 days, and L6 cells were kept in α-MEM medium containing 2% FBS for 7 days. Amino-acid-free DMEM medium was prepared using powder from USBio, and MEM amino acids solution was from Gibco. Media were all supplemented with 100 U/ml penicillin/streptomycin. Cell lines were purchased from ATCC.
as §1

[16] = tested on: MCF7 cells; experiment: Immunoblot analysis of AMPK activation in MCF7 cells; assay type: cell-based
Procedure: as §1

[17] = tested on: BT474 cells; experiment: Proliferation (CellTiter-Glo); assay type: cell-based
Procedure: To measure cell number using the CellTiter-Glo 2.0 assay kit (Promega), cultured cells were equilibrated to room temperature for 30 min, and an equal volume of the CellTiter-Glo reagent was added and mixed for 2 min on an orbital shaker. The plates were incubated for another 10 min before luminescence was recorded using a SpectraMax M5 plate reader. To assess the effect of compound on growth, cells were plated onto white solid-bottom 96-well plates (coming 3917) at 2,000 cells per well in sextuplicate. After 24 hrs, compound (or DMSO control) was added to the wells, and cell number was determined after culturing for 0, 24, 48, and 72 hrs.

Chain of Plk1 (P53350 whole entry): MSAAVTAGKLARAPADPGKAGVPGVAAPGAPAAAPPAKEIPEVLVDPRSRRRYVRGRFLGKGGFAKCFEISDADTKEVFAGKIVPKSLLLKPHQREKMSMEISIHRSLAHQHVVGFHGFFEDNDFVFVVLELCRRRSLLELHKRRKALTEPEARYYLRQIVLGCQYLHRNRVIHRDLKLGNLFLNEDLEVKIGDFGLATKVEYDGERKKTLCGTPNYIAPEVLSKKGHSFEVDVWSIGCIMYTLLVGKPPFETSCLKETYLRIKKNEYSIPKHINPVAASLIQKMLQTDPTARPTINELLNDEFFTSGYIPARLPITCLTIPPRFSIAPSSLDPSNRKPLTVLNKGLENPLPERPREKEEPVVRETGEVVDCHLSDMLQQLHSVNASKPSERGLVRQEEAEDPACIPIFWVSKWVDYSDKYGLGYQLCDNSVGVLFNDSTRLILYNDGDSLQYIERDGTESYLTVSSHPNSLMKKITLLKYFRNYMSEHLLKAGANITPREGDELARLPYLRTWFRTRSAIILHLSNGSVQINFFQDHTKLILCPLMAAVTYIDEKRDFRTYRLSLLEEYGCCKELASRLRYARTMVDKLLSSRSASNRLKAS
Chain of PI3Kγ (P48736 whole entry, species assumed): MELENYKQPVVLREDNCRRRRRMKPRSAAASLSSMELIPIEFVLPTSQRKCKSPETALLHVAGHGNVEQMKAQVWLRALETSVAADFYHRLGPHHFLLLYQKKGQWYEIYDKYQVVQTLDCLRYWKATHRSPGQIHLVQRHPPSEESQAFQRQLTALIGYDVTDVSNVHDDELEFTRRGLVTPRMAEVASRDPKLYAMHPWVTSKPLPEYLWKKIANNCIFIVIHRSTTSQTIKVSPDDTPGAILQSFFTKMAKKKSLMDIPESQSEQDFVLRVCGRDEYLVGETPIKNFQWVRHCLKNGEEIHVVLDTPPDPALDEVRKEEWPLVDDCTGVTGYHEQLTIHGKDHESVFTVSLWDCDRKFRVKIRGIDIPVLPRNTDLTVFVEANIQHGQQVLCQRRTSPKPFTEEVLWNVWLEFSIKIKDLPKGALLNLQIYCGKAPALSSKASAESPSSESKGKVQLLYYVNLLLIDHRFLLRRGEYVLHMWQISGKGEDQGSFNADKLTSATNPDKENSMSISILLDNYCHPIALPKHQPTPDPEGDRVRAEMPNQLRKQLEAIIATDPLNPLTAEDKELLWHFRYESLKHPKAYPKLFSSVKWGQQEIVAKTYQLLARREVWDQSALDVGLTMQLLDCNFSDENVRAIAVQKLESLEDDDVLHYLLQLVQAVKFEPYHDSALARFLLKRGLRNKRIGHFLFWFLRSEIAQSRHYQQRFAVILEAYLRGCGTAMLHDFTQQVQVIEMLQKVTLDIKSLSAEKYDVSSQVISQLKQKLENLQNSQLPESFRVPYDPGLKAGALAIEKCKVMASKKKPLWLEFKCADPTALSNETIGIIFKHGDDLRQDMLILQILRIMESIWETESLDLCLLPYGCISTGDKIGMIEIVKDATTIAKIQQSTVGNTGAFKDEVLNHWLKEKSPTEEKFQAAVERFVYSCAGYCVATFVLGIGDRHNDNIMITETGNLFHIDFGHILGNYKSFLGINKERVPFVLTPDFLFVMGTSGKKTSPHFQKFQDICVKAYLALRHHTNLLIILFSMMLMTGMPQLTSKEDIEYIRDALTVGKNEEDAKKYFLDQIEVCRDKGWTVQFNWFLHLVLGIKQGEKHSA
Chain of TNIK (Q9UKE5 whole entry): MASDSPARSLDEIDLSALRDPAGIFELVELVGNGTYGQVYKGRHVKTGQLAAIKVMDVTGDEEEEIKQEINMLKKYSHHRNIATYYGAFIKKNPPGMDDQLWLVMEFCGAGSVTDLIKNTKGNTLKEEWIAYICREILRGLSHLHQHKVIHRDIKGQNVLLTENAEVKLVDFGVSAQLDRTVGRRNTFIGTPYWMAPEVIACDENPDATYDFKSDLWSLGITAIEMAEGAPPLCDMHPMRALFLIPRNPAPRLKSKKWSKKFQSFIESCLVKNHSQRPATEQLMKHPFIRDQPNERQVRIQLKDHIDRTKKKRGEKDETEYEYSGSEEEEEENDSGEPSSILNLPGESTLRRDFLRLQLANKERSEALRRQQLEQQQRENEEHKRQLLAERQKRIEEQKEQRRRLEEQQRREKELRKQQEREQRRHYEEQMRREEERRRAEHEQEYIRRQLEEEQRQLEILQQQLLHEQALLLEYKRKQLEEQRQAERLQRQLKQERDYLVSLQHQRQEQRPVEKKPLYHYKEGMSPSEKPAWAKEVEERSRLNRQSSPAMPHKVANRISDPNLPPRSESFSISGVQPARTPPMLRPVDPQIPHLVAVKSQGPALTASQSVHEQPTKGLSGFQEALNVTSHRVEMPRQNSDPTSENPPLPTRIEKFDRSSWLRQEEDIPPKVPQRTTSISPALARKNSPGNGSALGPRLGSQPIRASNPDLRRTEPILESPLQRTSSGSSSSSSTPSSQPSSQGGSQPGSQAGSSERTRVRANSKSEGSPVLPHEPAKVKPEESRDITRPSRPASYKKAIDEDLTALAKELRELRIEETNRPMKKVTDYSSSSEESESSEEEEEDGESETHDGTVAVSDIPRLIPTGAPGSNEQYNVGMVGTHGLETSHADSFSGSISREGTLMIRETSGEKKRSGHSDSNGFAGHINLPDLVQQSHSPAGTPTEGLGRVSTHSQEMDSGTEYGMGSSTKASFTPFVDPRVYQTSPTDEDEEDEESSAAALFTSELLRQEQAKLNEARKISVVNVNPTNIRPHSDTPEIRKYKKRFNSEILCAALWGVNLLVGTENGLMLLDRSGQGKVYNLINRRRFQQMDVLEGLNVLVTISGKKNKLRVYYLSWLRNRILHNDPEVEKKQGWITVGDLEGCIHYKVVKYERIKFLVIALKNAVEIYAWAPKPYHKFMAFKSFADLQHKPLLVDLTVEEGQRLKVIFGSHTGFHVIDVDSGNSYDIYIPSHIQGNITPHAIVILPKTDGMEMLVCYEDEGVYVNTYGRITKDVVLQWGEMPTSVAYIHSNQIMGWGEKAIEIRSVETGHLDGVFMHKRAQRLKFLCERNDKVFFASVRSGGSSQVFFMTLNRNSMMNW
Chain of RSK2 (P51812 whole entry): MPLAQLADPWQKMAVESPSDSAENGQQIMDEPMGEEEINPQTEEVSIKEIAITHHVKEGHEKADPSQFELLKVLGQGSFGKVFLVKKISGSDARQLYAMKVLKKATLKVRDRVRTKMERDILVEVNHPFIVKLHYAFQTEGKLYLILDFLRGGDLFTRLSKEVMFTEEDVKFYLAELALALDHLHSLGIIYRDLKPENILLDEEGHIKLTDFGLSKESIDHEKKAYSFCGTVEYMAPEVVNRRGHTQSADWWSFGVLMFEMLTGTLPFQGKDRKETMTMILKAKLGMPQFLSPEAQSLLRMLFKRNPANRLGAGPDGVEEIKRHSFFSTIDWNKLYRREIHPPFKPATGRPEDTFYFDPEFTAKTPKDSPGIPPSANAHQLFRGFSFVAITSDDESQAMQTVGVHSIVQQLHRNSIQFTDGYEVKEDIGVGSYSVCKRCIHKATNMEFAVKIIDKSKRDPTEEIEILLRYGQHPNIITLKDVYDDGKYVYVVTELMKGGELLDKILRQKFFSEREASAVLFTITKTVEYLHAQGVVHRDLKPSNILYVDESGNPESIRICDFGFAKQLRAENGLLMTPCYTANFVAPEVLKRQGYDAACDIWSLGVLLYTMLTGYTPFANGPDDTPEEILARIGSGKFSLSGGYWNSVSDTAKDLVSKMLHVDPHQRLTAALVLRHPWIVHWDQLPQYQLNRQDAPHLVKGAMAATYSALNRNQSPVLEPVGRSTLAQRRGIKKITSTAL
Chain of PLK2 (Q9NYY3 whole entry): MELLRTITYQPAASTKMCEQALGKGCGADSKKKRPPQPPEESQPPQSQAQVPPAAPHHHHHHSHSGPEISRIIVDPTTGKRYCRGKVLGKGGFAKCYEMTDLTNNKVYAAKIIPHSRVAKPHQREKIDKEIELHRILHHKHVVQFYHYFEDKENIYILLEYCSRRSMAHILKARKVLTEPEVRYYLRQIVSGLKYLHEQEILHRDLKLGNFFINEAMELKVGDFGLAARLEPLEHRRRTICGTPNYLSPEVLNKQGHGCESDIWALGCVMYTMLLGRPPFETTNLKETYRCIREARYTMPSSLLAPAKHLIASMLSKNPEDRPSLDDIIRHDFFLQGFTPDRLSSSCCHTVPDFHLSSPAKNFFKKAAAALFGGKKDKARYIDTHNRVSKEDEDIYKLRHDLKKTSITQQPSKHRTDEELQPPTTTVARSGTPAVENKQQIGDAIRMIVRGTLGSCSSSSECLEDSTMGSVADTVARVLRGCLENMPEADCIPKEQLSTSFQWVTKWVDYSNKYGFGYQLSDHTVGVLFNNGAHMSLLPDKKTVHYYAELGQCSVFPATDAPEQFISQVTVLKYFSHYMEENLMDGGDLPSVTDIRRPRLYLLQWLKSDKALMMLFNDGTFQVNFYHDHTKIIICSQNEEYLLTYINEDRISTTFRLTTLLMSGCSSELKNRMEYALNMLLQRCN

**Q.** With `CN1C(=O)[C@@H](CC2CCCC2)N(C2CCCC2)c2nc(Nc3cc(Cl)c(O)c(Cl)c3)ncc21` [7a, (R)-8-cyclopentyl-7-(cyclopentylmethyl)-2-((3,5-dichloro-4-hydroxyphenyl)amino)-5-methyl-7,8-dihydropteridin-6(5H)-one] as the compound, how does the pKi [1] read?
**A.** The pKi was roughly 6.70.

**Q.** And the remaining activity at 0.5 µM [2]?
**A.** Its remaining activity at 0.5 µM is 83%.

**Q.** What about the remaining activity at 0.5 µM [3] of the same compound?
**A.** Its remaining activity at 0.5 µM is 73%.

**Q.** What about the “inhibition of other lipid kinases of the panel” value [4] of the same compound?
**A.** The value was “did not inhibit most PI3Ks, PI4Ks or sphingosine kinases”.

**Q.** What about the ADP concentration [5] of the same compound?
**A.** The ADP concentration was “unchanged”.

**Q.** What about the “reduction of intracellular ATP level” value ([5]; bioluminescence assay or HPLC, compound overnight) of the same compound?
**A.** The value was 15%.

**Q.** What about the “increase in AMP concentration” value ([5]; triple quadrupole LC-MS/MS) of the same compound?
**A.** Its value is 30%.

**Q.** What about the ROS [6] of the same compound?
**A.** Its ROS is “increased”.

**Q.** What about the “residual growth of p53(−/−) cells under EGFR inhibition” value ([7]; 10 μM 7a) of the same compound?
**A.** The value was “eliminated”.

**Q.** And the “sensitivity of growth of p53(−/−) vs p53(+/+) cells” value ([7]; without EGF supplement)?
**A.** The value was “more sensitive”.

**Q.** What about the “ACC phosphorylation / AMPK activation” value [8] of the same compound?
**A.** The value was “activated”.

**Q.** What about the “inhibition of Plk1” value [9] of the same compound?
**A.** The value was “no longer inhibited”.

**Q.** What about the remaining activity at 0.5 µM [10] of the same compound?
**A.** Its remaining activity at 0.5 µM is 75%.

**Q.** What about the remaining activity at 0.5 µM [11] of the same compound?
**A.** Its remaining activity at 0.5 µM is 66%.

**Q.** What about the “lactate accumulated in the media” value ([12]; 48 hours after treatment) of the same compound?
**A.** The value was 7.7 mM.

**Q.** What about the “reduction of glucose concentration in the media” value ([12]; 48 hours after treatment) of the same compound?
**A.** Its value is 10.3 mM.

**Q.** And the “increase in glucose consumption” value ([12]; after 2 days of cell culture)?
**A.** The value was 32%.

**Q.** What about the “increase in lactate secretion” value ([12]; after 2 days of cell culture) of the same compound?
**A.** The value was 45%.

**Q.** And the “inhibition of Vps34” value [13]?
**A.** The value was “not inhibited”.

**Q.** What about the cell death [14] of the same compound?
**A.** The cell death was “selectively kills p53(−/−) cells”.

**Q.** What about the “basal and insulin-induced phosphorylation of S6K at Thr-389” value [15] of the same compound?
**A.** Its value is “reduced”.

**Q.** What about the “phosphorylation of acetyl-CoA carboxylase (ACC)” value ([15]; C2Cl2 myotubes, dose-dependent) of the same compound?
**A.** The value was “significantly increased”.

**Q.** What about the “IRS phosphorylation at Ser-302” value ([15]; FIG. 3D) of the same compound?
**A.** The value was “reduced”.

**Q.** And the Akt phosphorylation ([15]; FIG. 3D, comparison 7a vs rapamycin)?
**A.** The Akt phosphorylation was “more pronounced effect”.

**Q.** And the “hormone-induced Akt phosphorylation, especially at Ser-473” value ([15]; overnight incubation with 20 μM)?
**A.** Its value is “increased”.

**Q.** What about the AMPK activation ([16]; MCF7, absence of serum) of the same compound?
**A.** The AMPK activation was “caused AMPK activation”.

**Q.** What about the AMPK activation ([16]; MCF7, with serum) of the same compound?
**A.** Its AMPK activation is “no longer caused AMPK activation”.

**Q.** And the “sensitivity of BT474 growth to inhibition at 32° C.” value ([17]; 32° C. (restores p53 function))?
**A.** The value was “less sensitive”.

**Q.** What about the “growth of BT474 cells” value ([17]; dose-dependent, 37° C.) of the same compound?
**A.** The value was “inhibited”.
